Results reported in patent US11028079B2 (ConverGene LLC, priority 2015, dated 2021).

Molecular target: T1, BRD4 bromodomains (Homo sapiens, UniProt O60885)
T1 construct: fused on or other part: T7 phage capsid protein (phage-display fusion; the phage DNA is read out by qPCR)
Assay: BROMOscan bromodomain competition binding assay (DiscoveRx)
Details: Kd from 11 compound concentrations ranging from 0 to 10 μM, read-out: BROMOscan Relative Activity
Outline: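 Compounds in 0.1% DMSO/0.9% MEG competed with a solid-phase acetylated peptide for T7 phage-fused BRD4 bromodomains, with the retained bromodomain measured by qPCR.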

Cc1noc(C)c1-c1ccc2nc(-c3csc(CO)c3)nc(N3CCOC[C@@H]3c3ccccc3)c2c1 [Example 325, (S)-(4-(6-(3,5-dimethylisoxazol-4-yl)-4-(3-phenylmorpholino)quinazolin-2-yl)thiophen-2-yl)methanol]
Kd: 500 to 5000 nM

Cc1noc(C)c1-c1ccc2nc(-c3cnn(C4CNC4)c3)nc(N3CCOC[C@@H]3c3ccccc3)c2c1 [Example 326, (S)-4-(2-(1-(azetidin-3-yl)-1H-pyrazol-4-yl)-6-(3,5-dimethylisoxazol-4-yl)quinazolin-4-yl)-3-phenylmorpholine]
Kd: < 500 nM

CC(=O)N1CCC(n2cc(-c3nc(N4CCOC[C@@H]4c4ccccc4)c4cc(-c5c(C)noc5C)ccc4n3)cn2)CC1 [Example 327, (S)-1-(4-(4-(6-(3,5-dimethylisoxazol-4-yl)-4-(3-phenylmorpholino)quinazolin-2-yl)-1H-pyrazol-1-yl)piperidin-1-yl)ethan-1-one]
Kd: < 500 nM

Cc1noc(C)c1-c1ccc2nc(N3CCc4c(ncn4C)C3)nc(N3CCOC[C@@H]3c3ccccc3)c2c1 [Example 328, (S)-4-(6-(3,5-dimethylisoxazol-4-yl)-2-(1-methyl-1,4,6,7-tetrahydro-5H-imidazo[4,5-c]pyridin-5-yl)quinazolin-4-yl)-3-phenylmorpholine]
Kd: < 500 nM

Cc1noc(C)c1-c1ccc2nc(N3CCC4(CCNC4=O)CC3)nc(N3CCOC[C@@H]3c3ccccc3)c2c1 [Example 329, (S)-8-(6-(3,5-dimethylisoxazol-4-yl)-4-(3-phenylmorpholino)quinazolin-2-yl)-2,8-diazaspiro[4.5]decan-1-one]
Kd: < 500 nM

Cc1noc(C)c1-c1ccc2nc(N3CCC4(CCC(=O)N4C)CC3)nc(N3CCOC[C@@H]3c3ccccc3)c2c1 [Example 330, (S)-8-(6-(3,5-dimethylisoxazol-4-yl)-4-(3-phenylmorpholino)quinazolin-2-yl)-1-methyl-1,8-diazaspiro[4.5]decan-2-one]
Kd: < 500 nM
